Measurements published in publication PMC9139979, “Features of ZED1227: The First-In-Class Tissue Transglutaminase Inhibitor Undergoing Clinical Evaluation for the Treatment of Celiac Disease” (Cells, 2022).
Entries after “also recorded” stand apart in the source; their conditions may differ.

Tests used:
Caco-2 cells [1] = assay: EZ4U viability assay, Caco-2; assay type: cell-based; settings: up to 1,000 μM, 48 h
Protocol: (§1) Cytotoxicological analysis of ZED1227 was performed using Huh7 (human liver carcinoma, CLS Cell Lines Service GmbH, Eppelheim, Germany) and Caco-2 cells (human epithelial colorectal adenocarcinoma, Sigma Aldrich, Taufkirchen, Germany) with respect to the effect on proliferation and viability, according to the assay protocols provided by the manufacturers of the respective kits. The Cell Proliferation ELISA (BrdU, colorimetric) was purchased from Roche (Mannheim, Germany), whereas the Cell Proliferation and Cytotoxicity Assay EZ4U was purchased from Biomedica (Vienna, Austria). […]
(§2) The EZ4U assay (determination of viability) was performed by incubating the cells with ZED1227 working solution (1% DMSO in culture medium) up to a concentration of 1,000 μM for 48 h, followed by addition of a yellow tetrazolium reagent (not further specified) into the culture medium. The non-toxic tetrazolium salts were reduced to red-colored formazan which was quantified spectrophotometrically. […]

Huh7 cells [2] = assay: BrdU cell proliferation ELISA, Huh7; assay type: cell-based, human; settings: up to 1,000 μM, 24 h + 24 h
Protocol: (§3) Cytotoxicological analysis of ZED1227 was performed using Huh7 (human liver carcinoma, CLS Cell Lines Service GmbH, Eppelheim, Germany) and Caco-2 cells (human epithelial colorectal adenocarcinoma, Sigma Aldrich, Taufkirchen, Germany) with respect to the effect on proliferation and viability, according to the assay protocols provided by the manufacturers of the respective kits. The Cell Proliferation ELISA (BrdU, colorimetric) was purchased from Roche (Mannheim, Germany), whereas the Cell Proliferation and Cytotoxicity Assay EZ4U was purchased from Biomedica (Vienna, Austria). Briefly, Caco-2 cells (in MEM with 1% non-essential amino acid solution, both Sigma Aldrich (Taufkirchen, Germany), 10% fetal bovine serum, 2 mM L-glutamine, 100 U/mL penicillin–streptomycin, all from Gibco) or Huh7 cells (in DMEM low glucose, Sigma Aldrich (Taufkirchen, Germany), 10% fetal bovine serum, 1 mM sodium pyruvate, 100 U/mL penicillin–streptomycin, all from Gibco) were cultured in 96 well plates, using 2.5 μg/mL cycloheximide and 0.2 μg/mL camptothecin-treated cells as positive control. In the 5-bromo-2′-deoxyuridine (BrdU) assay (determination of cell proliferation), the cells were incubated with ZED1227 working solution (1% DMSO in culture medium) up to a concentration of 1,000 μM for 24 h, followed by addition of BrdU into the culture medium and further culturing for 24 h. […]

[3] = test system: adult patients with well-controlled celiac disease; parameters: method as in PMID 34192430; settings: cited from earlier work
Huh7 cells [4] = assay: EZ4U viability assay, Huh7; assay type: cell-based; settings: up to 1,000 μM, 48 h
Protocol: as §1, §2

hTG3 = biological target: T1, hTG3 (Homo sapiens, UniProt Q08188); assay: Fluorescent transamidation assay (DCC-assay), hTG3; assay type: biochemical
T1 construct: purchased Zedira T013
T1 sequence (Q08188 2-467 limits assumed): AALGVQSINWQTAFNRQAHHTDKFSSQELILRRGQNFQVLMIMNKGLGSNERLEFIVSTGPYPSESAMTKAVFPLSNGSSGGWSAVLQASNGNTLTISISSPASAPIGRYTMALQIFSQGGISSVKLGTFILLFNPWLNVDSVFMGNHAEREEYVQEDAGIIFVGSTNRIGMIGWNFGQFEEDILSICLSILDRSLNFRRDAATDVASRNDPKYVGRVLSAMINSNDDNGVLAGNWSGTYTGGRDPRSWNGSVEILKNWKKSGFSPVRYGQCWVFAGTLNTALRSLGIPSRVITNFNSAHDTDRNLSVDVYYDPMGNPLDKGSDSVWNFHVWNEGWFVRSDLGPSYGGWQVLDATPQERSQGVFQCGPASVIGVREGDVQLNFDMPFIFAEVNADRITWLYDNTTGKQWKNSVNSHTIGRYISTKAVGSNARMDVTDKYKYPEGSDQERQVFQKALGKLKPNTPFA
T1 sequence (Q08188 468-693 partner limits assumed): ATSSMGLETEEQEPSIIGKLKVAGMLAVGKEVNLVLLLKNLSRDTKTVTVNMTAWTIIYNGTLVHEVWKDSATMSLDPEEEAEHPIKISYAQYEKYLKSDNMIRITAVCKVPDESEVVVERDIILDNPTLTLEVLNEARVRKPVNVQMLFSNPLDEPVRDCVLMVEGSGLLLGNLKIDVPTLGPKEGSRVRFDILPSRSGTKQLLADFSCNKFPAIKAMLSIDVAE

Caco-2 cells [5] = assay: BrdU cell proliferation ELISA, Caco-2; assay type: cell-based, human; settings: up to 1,000 μM, 24 h + 24 h
Protocol: as §3

hFXIII-A2 = biological target: T2, hFXIII-A2 (Homo sapiens, UniProt P00488); assay: Fluorescent transamidation assay (DCC-assay), hFXIII-A2; assay type: biochemical
T2 construct: purchased Zedira T027
T2 sequence (P00488 39-732 limits assumed): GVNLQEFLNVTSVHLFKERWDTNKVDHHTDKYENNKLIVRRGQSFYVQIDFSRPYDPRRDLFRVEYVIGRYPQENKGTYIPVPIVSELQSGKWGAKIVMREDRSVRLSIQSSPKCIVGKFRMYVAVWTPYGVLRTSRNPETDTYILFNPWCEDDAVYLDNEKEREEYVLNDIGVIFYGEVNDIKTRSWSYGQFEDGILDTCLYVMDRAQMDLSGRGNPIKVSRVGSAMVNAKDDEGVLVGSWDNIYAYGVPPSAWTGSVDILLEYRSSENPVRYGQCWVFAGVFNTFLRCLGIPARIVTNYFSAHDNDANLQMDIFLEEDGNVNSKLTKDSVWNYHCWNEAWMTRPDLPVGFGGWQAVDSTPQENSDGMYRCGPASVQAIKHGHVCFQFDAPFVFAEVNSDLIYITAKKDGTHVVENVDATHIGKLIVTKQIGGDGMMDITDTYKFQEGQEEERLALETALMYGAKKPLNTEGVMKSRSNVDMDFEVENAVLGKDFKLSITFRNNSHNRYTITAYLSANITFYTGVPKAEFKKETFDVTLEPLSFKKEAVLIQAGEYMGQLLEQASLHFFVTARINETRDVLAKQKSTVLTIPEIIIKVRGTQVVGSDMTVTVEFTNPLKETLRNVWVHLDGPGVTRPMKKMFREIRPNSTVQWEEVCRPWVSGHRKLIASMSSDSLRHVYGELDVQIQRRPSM

[6] = Stability in PBS and artificial gastric and intestinal fluid (residual parent compound); assay type: physicochemical; settings: for Stability in PBS/saline (residual parent compound): initial 100 μM
Protocol: The logD value (distribution coefficient) of the compound was determined by means of the shake flask method, measuring the distribution of the solute in octanol and phosphate-buffered saline (PBS, pH 7.4). The concentration of ZED1227 in the immiscible solvents was determined by HPLC (vide supra). The stability in PBS (pH 7.4 or acidified to pH 5.0), in artificial gastric, and intestinal fluid was calculated as the percentage of residual parent compound after incubation for 24 h at 37 °C, using an initial concentration of 100 μM.

CCC(CC)CNC(=O)Cn1cccc(NC(=O)[C@H](CC/C=C/C(=O)OC)NC(=O)c2cncn2C)c1=O [ZED1227, (S,E)-Methyl 7-(1-(2-(2-ethylbutylamino)-2-oxoethyl)-2-oxo-1,2-dihydropyridin-3-ylamino)-6-(1-methyl-1H-imidazole-5-carboxamido)-7-oxohept-2-enoate]
Cytotoxicity: Viability, Caco-2 cells (Caco-2 cells [1]): not cytotoxic up to 1,000 μM; also recorded: no effect up to 1,000 μM no effect up to 1,000 μM no effect up to 1,000 μM no effect up to 1,000 μM
Cytotoxicity: Proliferation, Huh7 cells (Huh7 cells [2]): nor did it affect cell proliferation rates; also recorded: no effect up to 1,000 μM no effect up to 1,000 μM no effect up to 1,000 μM no effect up to 1,000 μM
Effect on gluten-induced duodenal mucosal injury, phase 2a ([3]; 6-week treatment, 10, 50, 100 mg oral, 3 g daily gluten challenge): protect celiac patients from gluten-induced mucosal injury; also recorded: all dose levels attenuated gluten-induced duodenal mucosal injury; also recorded: protected celiac patients from mucosal damage
Tolerability in gluten challenge study ([3]; celiac patients, gluten challenge): well-tolerated
Cytotoxicity: Viability, Huh7 cells (Huh7 cells [4]): not cytotoxic up to 1,000 μM; also recorded: no effect up to 1,000 μM no effect up to 1,000 μM no effect up to 1,000 μM no effect up to 1,000 μM
Selectivity hTG3 versus hTG2 (hTG3; ratio of app. IC50 values): >900 fold
IC50 (hTG3; recombinant, activated hTG3a, transamidation assay, read-out: App. IC50 hTG3): > 50 µM
Cytotoxicity: Proliferation, Caco-2 cells (Caco-2 cells [5]): nor did it affect cell proliferation rates; also recorded: no effect up to 1,000 μM no effect up to 1,000 μM no effect up to 1,000 μM no effect up to 1,000 μM
Selectivity hFXIII-A2 versus hTG2 (hFXIII-A2; ratio of app. IC50 values): >900 fold
IC50 (hFXIII-A2; recombinant, thrombin activated, transamidation assay, read-out: App. IC50 hFXIII-A2): > 50 µM
Recovery at low pH and in simulated gastric and intestinal fluid ([6]; after 24 h, summary statement): > 80%
Stability in PBS/saline (residual parent compound) ([6]; pH 5.0, 24 h, 37 °C): 89%
Stability in PBS/saline (residual parent compound) ([6]; pH 7.4, 24 h, 37 °C): 10%
Stability in artificial gastric fluid (residual parent compound) ([6]; simulated gastric fluid pH 1.2, 24 h, 37 °C): 95%
Stability in artificial intestinal fluid (residual parent compound) ([6]; simulated intestinal fluid pH 6.5, 24 h, 37 °C): 82%
